Patent publication US12590130B2, “Bipartite molecules and uses thereof in treating diseases associated with abnormal protein aggregates” (ACADEMIA SINICA, priority 2014, dated 2026)

Key:
109QmHtt = assay: Filter trap assay of aggregated 109QmHtt in Neuro2a cells; type: cell-based
Experimental: FIG. 4. Testing the ability of therapeutic peptides to decrease mHtt aggregation in Neuro2a cells overexpressing mHtt. Panel A: Filter trap assays and corresponding quantitation of cells (panel B) treated as indicated at 8 hours (T1), 24 hours (T2), or both (T1+2) after transfection with the 109QmHtt construct. […] Panel C: Western blots and quantitation (panel D) of RIPA-soluble (sol) and -insoluble (ins) fractions of Neuro2a cells overexpressing 25QHtt or 109QmHtt and treated as indicated. […] Panel E: Western blot of the 109QmHtt in cells treated as indicated. Note that MG132 blocked the effect of 8R10Q peptide with respect to decreasing insoluble 109QmHtt. Panel F: Quantitation of ratio of 109QmHtt in cells treated MG132 (+) over DMSO (−) in relationship to peptides. Statistical analysis conducted with one way ANOVA, *<0.05, **<0.01, ***<0.001, ns: not significant.
Whether the peptides could modulate the aggregation propensity of mHtt was next investigated.

R6/2 transgenic mice = assay: Therapeutic effect in R6/2 transgenic mice (function, blood sugar, lifespan); type: in vivo, mouse
Source text: FIG. 6. 8R10Q ameliorated functional deterioration of R6/2 transgenic mice. Panel A: Longitudinal rotarod performance of wild type (WT) and R6/2 mice treated with PBS or 8R10Q peptide. Note the significant delay in motor deterioration of R6/2 mice treated with 8R10Q from 11 weeks of age. Panel B: T maze test of WT and R6/2 mice at 13 weeks of age. […] Panel C: The curves of blood sugar in serum of WT and R6/2 mice treated as indicated. […] Panel D: Lifespan of WT and R6/2 mice treated with PBS vs. 8R10Q. 100% of R6/2 mice died before 16 weeks of age. […] WT mice N=6/group; R6/2 mice N=10/group; statistical analysis performed with two way ANOVA (panels A and C), one way ANOVA (panel B), *p<0.05; **p<0.01; ***p<0.001, ns: not significant, and log-rank (Mantel-Cox) Test (D), ***p<0.0001.
To test the therapeutic effect of the peptide in vivo, the 8R10Q peptide was delivered 6 days/week into the wild type (WT) or R6/2 transgenic mice through intranasal aspiration or continuously with the Alzet osmotic minipumps into the neostriatum. […] In fact, the 8R10Q-treated R6/2 mice performed even better than the 11 week-old PBS-treated mice on average. […] The R6/2 mice were previously reported to have diabetes. Bjorkqvist et al., Hum Mol Genet (2005) 14:565-74; and Hunt et al., Experimental Brain Res (2005) 166:220-9. […] To sum up, the 8R10Q peptide effectively delayed the onset of disease and ameliorated the pathological phenotypes.

[1] = test system: Neuro2a cells expressing 109QmHtt; assay: Retinoic acid-induced neurite outgrowth; type: cell-based, mouse; conditions: 109QmHtt cells; vs water or scrambled control
Experimental: FIG. 5. Therapeutic effect of 8R10Q and 8R15Q in 109QmHtt-expressing cells. Panel A: Cell viability assay by MTT in Neuro2a cells expressing 25QHtt (left) or 109QmHtt (right) treated with H2O2 at 50 μM and the indicated peptide. Panel B: Cell growth curve of Neuro2a cells expressing 25QHtt or 109QmHtt treated with indicated peptide. The cells in right subpanel were further treated with H2O2 at 12.5 μM 16 hours after transfection. 109QmHtt cells growth was slower than that of the 25QHtt cells. 8R10Q treatment rescued the slow growth of Neuro2a cells by 109QmHtt with or without H2O2. Panel C: Micrographs of the phase contrast and fluorescent images of retinoic acid-differentiated Neu2a cells expressing GFP-25QHtt or GFP-109QmHtt (GFP) treated with the indicated peptide. Note the neurites of the differentiated cells. Panel D: Quantitation of the percentage of differentiated cells with neurites. Fewer 109QmHtt-expressing cells had neurites vs. 25QHtt-expressing cells. […] The experiments were conducted in triplicate and repeated twice. Statistical analysis was performed with one way ANOVA, *p<0.05; **p<0.01; ***p<0.001, ns: not significant.
Retinoic acid (RA) induced the differentiation of Neuro2a cells with neurite outgrowth. 109QmHtt decreased the number of cells bearing RA-induced neurites relative to 25QHtt (FIG. 5, panels C and D).

[2] = Solubility of therapeutic peptides; type: physicochemical
Experimental: In this study, the rational design was tested for HD. Several bipartite therapeutic peptides containing 8 consecutive arginines (8R) attached to a stretch of consecutive glutamines (polyQ) were synthesized and their biological activity of decreasing the aggregation propensity of the mHtt protein was investigated. The length of the polyQ of these bipartite peptides was 5 (8R5Q), 10 (8R10Q), 15 (8R15Q) or 20 (8R20Q) (Table 2).

H-RRRRRRRRWDQQQQQQQQQQ-NH2 [Peptide 8R10Q, NH2-(R)8-W-D-(Q)10-CONH2]
aggregated 109QmHtt by filter trap assay (109QmHtt; 20 μM peptide added at 8 hours (T1) or 8 plus 24 hours (T1+T2) after transfection, vs water or 8R): significantly reduced
aggregated 109QmHtt by filter trap assay (109QmHtt; peptide added at 24 hours alone): no obvious effects
T maze test memory (R6/2 transgenic mice; 13 week-old R6/2 mice, intranasal): corrected the memory deficit
rotarod therapeutic effect, intracerebral delivery (R6/2 transgenic mice; Alzet osmotic minipumps into the neostriatum): very similar therapeutic effect to that given intranasally
diabetic phenotype, inflammatory index and abnormal liver function (R6/2 transgenic mice; R6/2 mice): decreased
diabetes phenotype (R6/2 transgenic mice; R6/2 mice, intracerebral): significantly corrected the diabetes phenotype
blood sugar (R6/2 transgenic mice; R6/2 mice, intranasal): delayed the rise and decreased the level of blood sugar
prevention of premature death (R6/2 transgenic mice; R6/2 mice, intranasal, at 16 weeks of age): 41%
age until which motor deterioration (rotarod) was delayed (R6/2 transgenic mice; R6/2 mice, intranasal, deterioration significant from 11 weeks with PBS): 13 weeks
body weights (R6/2 transgenic mice; WT or R6/2 mice, intranasal or intracerebral route): remained comparable to those treated with PBS
RA-induced neurite outgrowth [1]: significantly reversed the defect in neurite outgrowth
Solubility (DMEM/10% FBS) ([2]; DMEM/10% FBS): Soluble
solubility in water or culture medium ([2]; water or culture medium): highly soluble
